According to patent US20080194616A1, “PYRIDOPYRIMIDINONE COMPOUNDS USEFUL IN TREATING SODIUM CHANNEL-MEDIATED DISEASES OR CONDITIONS” (Xenon Pharmaceuticals Inc., priority 2007, published 2008):
Structures can show the parent of a compound that is named as a salt.

system: sodium channel; assay: Guanidine Influx Assay (In Vitro Assay); type: cell-based, human or rat; details: known cell line that expresses a sodium channel; read-out: IC50 Activity Level
Text: This example describes an in vitro assay for testing and profiling test agents against human or rat sodium channels stably expressed in cells of either an endogenous or recombinant origin. The assay is also useful for determining the IC-50 of a sodium channel blocking compound. The assay is based on the guanidine flux assay described by Reddy, N. L., et al., J. Med. Chem. (1998), 41(17):3298-302.
The guanidine influx assay is a radiotracer flux assay used to determine ion flux activity of sodium channels in a high-throughput microplate-based format. The assay uses ^14C-guanidine hydrochloride in combination with various known sodium channel modulators, to assay the potency of test agents. Potency is determined by an IC-50 calculation. Selectivity is determined by comparing potency of the compound for the channel of interest to its potency against other sodium channels (also called ‘selectivity profiling’).
Each of the test agents is assayed against cells that express the channels of interest. Voltage gated sodium channels are either TTX sensitive or insensitive. This property is useful when evaluating the activities of a channel of interest when it resides in a mixed population with other sodium channels. The following Table 1 summarizes cell lines useful in screening for a certain channel activity in the presence or absence of TTX.
Cells expressing the channel of interest are grown according to the supplier or in the case of a recombinant cell in the presence of selective growth media such as G418 (Gibco/Invitrogen). The cells are disassociated from the culture dishes with an enzymatic solution (1×) Trypsin/EDTA (Gibco/Invitrogen) and analyzed for density and viability using haemocytometer (Neubauer). Disassociated cells are washed and resuspended in their culture media then plated into Scintiplates (Beckman Coulter Inc.) (approximately 100,000 cells/well) and incubated at 37° C./5% CO2. for 20-24 hours. After an extensive wash with Low sodium HEPES-buffered saline solution (LNHBSS) (150 mM Choline Chloride, […] (Sigma), 1 mM Calcium Chloride, 5 mM Potassium Chloride, 1 mM Magnesium Chloride, 10 mM Glucose) agents diluted with LNHBSS are added to each well. (Varying concentrations of test agent may be used). The activation/radiolabel mixture contains aconitine (Sigma), and ^14C-guanidine hydrochloride (ARC).
After loading the cells with test agent and activation/radiolabel mixture, the Scintiplates are incubated at ambient temperature. Following the incubation, the Scintplates are extensively washed with LNHBSS supplemented with guanidine (Sigma). The Scintiplates are dried and then counted using a Wallac MicroBeta TriLux (Perkin-Elmer Life Sciences). The ability of the test agent to block sodium channel activity is determined by comparing the amount of ^14C-guanidine present inside the cells expressing the different sodium channels.
IC-50 value of a test agent for a specific sodium channel may be determined using the above general method. IC-50 may be determined using a 3,8,10,12 or 16 point curve in duplicate or triplicate with a starting concentration of 1, 5 or 10 μM diluted serially with a final concentration reaching the sub-nanomolar, nanomolar and low micromolar ranges. Typically the mid-point concentration of test agent is set at 1 μM, and sequential concentrations of half dilutions greater or smaller are applied (e.g. 0.5 μM; […] and 0.25 μM; 10 μM and 0.125 μM; 20 μM etc.). The IC-50 curve is calculated using the 4 Parameter Logistic Model or Sigmoidal Dose-Response Model formula (fit=(A+((B−A)/(1+((C/x)̂D)))).

`CCCCc1nc2ccccn2c(=O)c1-c1ccc(OC)cc1` [Example 1, 2-butyl-3-(4-methoxyphenyl)-4H-pyrido[1,2-a]pyrimidin-4-one] and `CCCCc1nc2ccccn2c(=O)c1-c1ccc(Cl)cc1` [Example 1.8, 2-butyl-3-(4-chlorophenyl)-4H-pyrido[1,2-a]pyrimidin-4-one] cannot be ordered by IC50: ≥ 10 µM for the first, ≥ 10 µM for the second.

`CCCCc1nc2cc(C(F)(F)F)ccn2c(=O)c1-c1ccc(Cl)cc1` [Example 1.21, 2-butyl-3-(4-chlorophenyl)-8-(trifluoromethyl)-4H-pyrido[1,2-a]pyrimidin-4-one] and `CCCCc1nc2cc(C(F)(F)F)ccn2c(=O)c1-c1ccc(N[C@@H]2CCNC2)cc1` [Example 6.8, (R)-2-butyl-3-{4-[pyrrolidin-3-ylamino]phenyl}-8-(trifluoromethyl)-4H-pyrido[1,2-a]pyrimidin-4-one hydrochloride] cannot be ordered by IC50: ≥ 10 µM for the first, ≥ 10 µM for the second.

`CCCOc1nc2ccccn2c(=O)c1-c1ccc(Cl)cc1` [Example 1.25, 2-propoxy-3-(4-chlorophenyl)-4H-pyrido[1,2-a]pyrimidin-4-one] and `CCCc1nc2ccccn2c(=O)c1-c1ccc(N[C@@H]2CCNC2)cc1` [Example 6.5, (R)-2-propyl-3-(4-(pyrrolidin-3-ylamino)phenyl)-4H-pyrido[1,2-α]pyrimidin-4-one hydrochloride] cannot be ordered by IC50: 1 to 10 µM for the first, ≥ 10 µM for the second.

`CCCCc1nc2ccccn2c(=O)c1-c1ccc2c(c1)CCN2` [Example 2, 2-butyl-3-(indolin-5-yl)-4H-pyrido[1,2-a]pyrimidin-4-one hydrochloride] and `CCCCc1nc2ccccn2c(=O)c1-c1ccc(NC2CCNC2)cc1` (stereo not shown) [Example 7, 2-butyl-3-(4-(pyrrolidin-3-ylamino)phenyl)-4H-pyrido[1,2-a]pyrimidin-4-one hydrochloride] cannot be ordered by IC50: ≥ 10 µM for the first, ≥ 10 µM for the second.

`CCc1nc2ccccn2c(=O)c1-c1ccc(N[C@@H]2CCN(C(=O)OC(C)(C)C)C2)cc1` [Example 3.4, (R)-tert-butyl 3-(4-(2-ethyl-4-oxo-4H-pyrido[1,2-a]pyrimidin-3-yl)phenylamino)pyrrolidine-1-carboxylate] and `CCc1nc2ccccn2c(=O)c1-c1ccc(N[C@@H]2CCNC2)cc1` [Example 6.4, (R)-2-ethyl-3-(4-(pyrrolidin-3-ylamino)phenyl)-4H-pyrido[1,2-a]pyrimidin-4-one hydrochloride] cannot be ordered by IC50: ≥ 10 µM for the first, ≥ 10 µM for the second.

`CCCCc1nc2ccccn2c(=O)c1-c1ccc(N2CCOCC2)cc1` [Example 3.25, 2-butyl-3-(4-morpholin-4-ylphenyl)-4H-pyrido[1,2-a]pyrimidin-4-one] and `CCCCc1nc2ccccn2c(=O)c1-c1ccc(NC2CCOCC2)cc1` [Example 3.26, 2-butyl-3-[4-(tetrahydro-2H-pyran-4-ylamino)phenyl]-4H-pyrido[1,2-a]pyrimidin-4-one hydrochloride] cannot be ordered by IC50: ≥ 10 µM for the first, ≥ 10 µM for the second.

`CCCCc1nc2ccccn2c(=O)c1-c1ccc(NC[C@H]2CCCO2)cc1` [Example 3.27, (R)-2-butyl-3-(4-{[tetrahydrofuran-2-ylmethyl]amino}phenyl)-4H-pyrido[1,2-a]pyrimidin-4-one hydrochloride] and `CCCCc1nc2ccccn2c(=O)c1-c1ccc(NC[C@@H]2CCCO2)cc1` [Example 3.28, (S)-2-butyl-3-(4-{[tetrahydrofuran-2-ylmethyl]amino}phenyl)-4H-pyrido[1,2-a]pyrimidin-4-one hydrochloride] cannot be ordered by IC50: ≥ 10 µM for the first, ≥ 10 µM for the second.

`CCCCc1nc2ccccn2c(=O)c1-c1ccc(N[C@@H]2CCOC2)cc1` [Example 3.29, (R)-2-butyl-3-{4-[tetrahydrofuran-3-ylamino]phenyl}-4H-pyrido[1,2-a]pyrimidin-4-one hydrochloride] and `CCCCc1nc2ccccn2c(=O)c1-c1ccc(NC2CCCNC2)cc1` (stereo not shown) [Example 6, 2-butyl-3-[4-(piperidin-3-ylamino)phenyl]-4H-pyrido[1,2-a]pyrimidin-4-one hydrochloride] cannot be ordered by IC50: ≥ 10 µM for the first, ≥ 10 µM for the second.

`CCCCc1nc2ccccn2c(=O)c1-c1ccc(NC2CCNCC2)cc1` [Example 6.1, 2-butyl-3-[4-(piperidin-4-ylamino)phenyl]-4H-pyrido[1,2-a]pyrimidin-4-one hydrochloride] and `CCCCc1nc2ccccn2c(=O)c1-c1ccc(N[C@@H]2CCCNC2)cc1` [Example 6.2, (R)-2-butyl-3-{4-[piperidin-3-ylamino]phenyl}-4H-pyrido[1,2-a]pyrimidin-4-one hydrochloride] cannot be ordered by IC50: ≥ 10 µM for the first, ≥ 10 µM for the second.

`Cc1nc2ccccn2c(=O)c1-c1ccc(N[C@@H]2CCNC2)cc1` [Example 6.3, (R)-2-methyl-3-(4-(pyrrolidin-3-ylamino)phenyl)-4H-pyrido[1,2-a]pyrimidin-4-one hydrochloride] and `CCCCc1nc2ccc(C)cn2c(=O)c1-c1ccc(N[C@@H]2CCNC2)cc1` [Example 6.6, (R)-2-butyl-7-methyl-3-{4-[pyrrolidin-3-ylamino]phenyl}-4H-pyrido[1,2-a]pyrimidin-4-one hydrochloride] cannot be ordered by IC50: ≥ 10 µM for the first, ≥ 10 µM for the second.

`CCCCc1nc2ccc(F)cn2c(=O)c1-c1ccc(N[C@@H]2CCNC2)cc1` [Example 6.7, (R)-2-butyl-7-fluoro-3-{4-[pyrrolidin-3-ylamino]phenyl}-4H-pyrido[1,2-a]pyrimidin-4-one hydrochloride] and `CCCCc1nc2c3ccccc3ccn2c(=O)c1-c1ccc(N[C@@H]2CCNC2)cc1` [Example 6.9, (R)-2-butyl-3-{4-[pyrrolidin-3-ylamino]phenyl}-4H-pyrimido[2,1-a]isoquinolin-4-one hydrochloride] cannot be ordered by IC50: ≥ 10 µM for the first, ≥ 10 µM for the second.

system: not given; assay: not given; details: not given

First: CCCCc1nc2ccccn2c(=O)c1-c1ccc2[nH]ccc2c1 [Example 1.30, 2-butyl-3-(1H-indol-5-yl)-4H-pyrido[1,2-a]pyrimidin-4-one]
Second: CCCCc1nc2ccccn2c(=O)c1-c1ccc(N[C@@H]2CCN(C)C2)cc1 [Example 10, (R)-2-butyl-3-(4-{[1-methylpyrrolidin-3-yl]amino}phenyl)-4H-pyrido[1,2-a]pyrimidin-4-one]
The melting point of the first is lower: 132 to 135 °C for the first, 141 to 143 °C for the second.

First: CCCCc1nc2ccccn2c(=O)c1-c1ccc(NC2CCN(C(=O)OC(C)(C)C)C2)cc1 (stereo not shown) [Example 3.7, tert-butyl 3-{[4-(2-butyl-4-oxo-4H-pyrido[1,2-a]pyrimidin-3-yl)phenyl]amino}pyrrolidine-1-carboxylate]
Second: CCCCc1nc2ccccn2c(=O)c1-c1ccc(N[C@H]2CCN(C(=O)OC(C)(C)C)C2)cc1 [Example 3.8, (S)-tert-butyl 3-(4-(2-butyl-4-oxo-4H-pyrido[1,2-a]pyrimidin-3-yl)phenylamino)pyrrolidine-1-carboxylate]
The melting point of the first is higher: 116 to 118 °C for the first, 95 to 96 °C for the second.

First: CCCCc1nc2ccccn2c(=O)c1-c1ccc(N[C@@H]2CCN(C(=O)OC(C)(C)C)C2)cc1 [Example 3.9, (R)-tert-butyl 3-(4-(2-butyl-4-oxo-4H-pyrido[1,2-a]pyrimidin-3-yl)phenylamino)pyrrolidine-1-carboxylate]
Second: CC(C)Nc1nc2ccccn2c(=O)c1-c1ccc(N[C@@H]2CCN(C(=O)OC(C)(C)C)C2)cc1 [Example 3.23, (R)-tert-butyl 3-[(4-{2-[(1-methylethyl)amino]-4-oxo-4H-pyrido[1,2-a]pyrimidin-3-yl}phenyl)amino]pyrrolidine-1-carboxylate]
The melting point of the first is lower: 98 to 99 °C for the first, 208 to 211 °C for the second.
